These results are taken from patent US11297835B2, “Aqueous compositions of perillic acid compounds” (B.R.A.I.N. BIOTECHNOLOGY RESEARCH AND INFORMATION NETWORK AG, priority 2016, dated 2022).

Structures are written as SMILES.

Holding throughout (test): MIC, microdilution method adapted from DIN EN ISO 20776-1:2006
What all share (assay type): cell-based

Assay [1] relates to Aspergillus brasiliensis ATCC®16404. Particulars: pH <6.5; no growth after 24 h and 72 h. The procedure:
(§1) The antimicrobial activity of sodium perillate was examined in vitro using the microdilution method adapted from DIN EN ISO 20776-1:2006. R-Perillic acid and S-perillic acid were used as reference compounds. All experiments were done in 96-well plates in a final volume of 200 μL. Stock solutions of the investigated compounds were prepared in 25 mM buffer. The procedure was conducted as following: 4 μL of the particular stock solution were mixed with 196 μL culture medium containing a defined inoculum of the respective target strain. Sterile controls (not inoculated) and growth controls (buffer in-stead of compound added) were performed. All compound concentrations were tested in triplicate. The following strains were examined: Escherichia coli ATCC®8739, Pseudomonas aeruginosa ATCC®9027, Stapyhlococcus aureus ATCC®6538, Candida albicans ATCC®10231 and Aspergillus brasiliensis ATCC®16404. The following culture media were used: Mueller-Hinton II Bouillon (Escherichia coli, Pseudomonas aeruginosa and Staphylococcus aureus), yeast peptone dextrose (Candida albicans) and potato dextrose (Aspergillus brasiliensis). All culture media were buffered with 25 mM MES-buffer. For compound testing the plates were incubated at 37° C. (Escherichia coli, Pseudomonas aeruginosa and Staphylococcus aureus), at 28° C. (Candida albicans) and at 25° C. (Aspergillus brasiliensis). Plates were evaluated after 24 h and 72 h, respectively. The minimal inhibitory concentration is defined as the concentration where no microbial growth was observed after 24 h and 72 h incubation at the specified temperature.
(§2) Table 1 Determination of the minimal inhibition concentration (MIC, % w/v) of sodium perillate against five classical spoiling organisms under acidic (pH<6.5) and alkaline (pH>7.5) conditions using the microdilution method adapted according to DIN EN ISO 20776-1:2006. The experiments were performed in micro-well plates in a final volume of 200 μL. MIC-values are given according to the following letter code. A>1% w/v, B=0.5-1% w/v, C=0.1-0.5% w/v. D<0.1% w/v.

For assay [2], the system named is Candida albicans ATCC®10231. Particulars: no growth after 24 h and 72 h. The procedure:
as §1, §2

The test system of assay [3] is Escherichia coli ATCC®8739. Particulars: no growth after 24 h and 72 h. How it is done: as §1, §2
In assay [4] the test system is Pseudomonas aeruginosa ATCC®9027. Particulars: no growth after 24 h and 72 h. How it is done: as §1, §2
Assay [5] deals with Staphylococcus aureus ATCC®6538. Particulars: no growth after 24 h and 72 h. How it is done: as §1, §2

Consider `C=C(C)[C@H]1CC=C(C(=O)O)CC1` [R-Perillic Acid, R-Perillic acid], for which the MIC result in assay [1] is recorded as “D (D<0.1% w/v)”; in assay [2] (pH <6.5), “D (D<0.1% w/v)”; in assay [2] (pH >7.5), “C (C=0.1-0.5% w/v)”; in assay [3] (pH <6.5), “C (C=0.1-0.5% w/v)”; in assay [3] (pH >7.5), “B (B=0.5-1% w/v)”; in assay [4] (pH <6.5) it was “B (B=0.5-1% w/v)”. The results for the MIC entry in assay [4] (pH >7.5), in assay [5] (pH <6.5) and in assay [5] (pH >7.5) were “A (A>1% w/v)”, “D (D<0.1% w/v)” and “B (B=0.5-1% w/v)”, respectively.
For the compound `C=C(C)[C@@H]1CC=C(C(=O)O)CC1` [S-Perillic Acid, S-perillic acid], the MIC result is on record as “D (D<0.1% w/v)” in assay [1]; “D (D<0.1% w/v)” in assay [2] (pH <6.5); “C (C=0.1-0.5% w/v)” in assay [2] (pH >7.5); “C (C=0.1-0.5% w/v)” in assay [3] (pH <6.5); “B (B=0.5-1% w/v)” in assay [3] (pH >7.5); “B (B=0.5-1% w/v)” in assay [4] (pH <6.5). Moreover, the figures for the MIC result in assay [4] (pH >7.5), in assay [5] (pH <6.5) and in assay [5] (pH >7.5) were “A (A>1% w/v)”, “D (D<0.1% w/v)” and “B (B=0.5-1% w/v)”, respectively.
